From patent publication US9458089B2, “Phenoxy alkyl diethanolamine and diisopropanolamine compounds for delivering active agents” (EMISPHERE TECHNOLOGIES, INC., priority 2012, dated 2016)
Structures can show the parent of a compound that is named as a salt.

Experiments:
[1] = molecular target: T1, hERG channels (Homo sapiens, UniProt Q12809); experiment: hERG patch clamp on clone hERG channels in mammalian cells; format: cell-based; conditions: test article 1 μm, cisapride positive control, read-out: Experimental hERG Activity
T1 construct: expressed in transfected cells
T1 sequence (Q12809 whole entry): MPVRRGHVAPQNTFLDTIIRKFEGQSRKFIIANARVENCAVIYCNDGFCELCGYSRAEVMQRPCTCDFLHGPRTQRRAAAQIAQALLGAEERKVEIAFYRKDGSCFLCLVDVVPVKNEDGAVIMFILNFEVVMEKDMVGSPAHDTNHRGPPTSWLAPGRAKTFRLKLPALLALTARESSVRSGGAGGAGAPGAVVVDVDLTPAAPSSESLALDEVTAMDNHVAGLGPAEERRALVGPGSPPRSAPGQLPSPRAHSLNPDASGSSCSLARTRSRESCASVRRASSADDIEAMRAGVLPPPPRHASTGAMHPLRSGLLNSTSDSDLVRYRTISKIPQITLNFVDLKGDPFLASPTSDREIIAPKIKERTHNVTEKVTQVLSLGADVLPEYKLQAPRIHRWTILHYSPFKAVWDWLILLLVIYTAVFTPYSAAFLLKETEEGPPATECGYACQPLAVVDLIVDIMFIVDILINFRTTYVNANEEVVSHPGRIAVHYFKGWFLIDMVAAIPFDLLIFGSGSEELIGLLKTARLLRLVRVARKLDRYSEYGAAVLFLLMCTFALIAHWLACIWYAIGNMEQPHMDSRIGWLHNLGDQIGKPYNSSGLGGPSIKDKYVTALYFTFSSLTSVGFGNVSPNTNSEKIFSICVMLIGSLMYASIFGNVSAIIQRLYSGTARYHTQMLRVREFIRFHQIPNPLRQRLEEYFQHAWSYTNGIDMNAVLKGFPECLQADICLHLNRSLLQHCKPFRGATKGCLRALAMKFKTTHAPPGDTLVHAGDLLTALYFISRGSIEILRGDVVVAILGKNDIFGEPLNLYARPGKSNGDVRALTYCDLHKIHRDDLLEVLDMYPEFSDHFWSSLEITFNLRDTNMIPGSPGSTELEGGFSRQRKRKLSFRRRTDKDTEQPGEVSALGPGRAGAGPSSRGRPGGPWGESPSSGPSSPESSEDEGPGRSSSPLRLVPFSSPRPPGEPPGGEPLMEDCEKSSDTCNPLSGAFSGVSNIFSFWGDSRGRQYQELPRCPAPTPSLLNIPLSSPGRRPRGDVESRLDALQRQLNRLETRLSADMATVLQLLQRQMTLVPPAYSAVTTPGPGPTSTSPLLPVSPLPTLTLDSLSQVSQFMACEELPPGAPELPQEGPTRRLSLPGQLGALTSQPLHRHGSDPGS
Procedure: hERG activity was measured using a patch clamp method on clone hERG channels in mammalian cells. The concentration of test articles was 1 μm and a comparison was made to both a positive (cisapride) and negative (vehicle) control.

| SMILES | IC50 [1] [nM] | melting point [°C] |
| --- | --- | --- |
| Cc1ccc(C)c(OCCCCCCN(CCO)CCO)c1 | < 2000 | – |
| Cc1ccc(C)c(OCCCCCCCN2CCOCC2)c1 | < 2000 | – |
| Cc1ccc(C)c(OCCCCCCCN(CCO)CCO)c1 | < 2000 | – |
| OCCN(CCO)CCCCCCCCOc1ccccc1O | 2000 to 5000 | – |
| Cc1ccc(F)c(OCCCCN(CCO)CCO)c1 (as salt: hydrochloride) [Compound 2-FPBD, 4-(2-fluoro-5-methylphenoxy)butyldiethanolamine] | – | 83 to 86 |
| OCCN(CCO)CCCCCCOc1ccccc1O (as salt: hydrochloride) [Compound 2-HPHD, 6-(2-hydroxyphenoxyl)hexyldiethanolamine] | – | 95 to 97 |
